Measured values from publication PMC7724566, “Prospects for Clinical Development of Stat5 Inhibitor IST5-002: High Transcriptomic Specificity in Prostate Cancer and Low Toxicity In Vivo” (Cancers, 2020).

How the values were obtained:
[1] = system: MCM10; assay: qRT-PCR mRNA level; type: cell-based, human; conditions: CWR22Pc cells, 6 µM vs. vehicle, 3 days
Source text: (§1) Specifically, significant changes were evident in 21 of 203 genes associated with DNA replication and nuclear division (Figure 3B). Specifically, genes associated with minichromosome maintenance family (MCM2, MCM3, MCM4, MCM5, MCM10) were regulated by both IST5 and shStat5 in PC cells, and were associated with DNA replication and DNA replication initiation process as indicated by the functional module analysis (Figure 3). In addition, suppression of the top genes regulated by IST5 and genetic knockdown of Stat5 was confirmed by quantitative real-time polymerase chain reaction (qRT-PCR) in CWR22Pc cells after 3 days of Stat5 inhibition (Figure 3C). It is important to note that the gene expression changes induced by both shStat5 and IST5 in PC cells described here represent later changes in gene expression networks and the early genes (at 24 h) regulated by shStat5/IST5 might be different.
(§2) Figure 3 Pathway enrichment analysis of genes regulated similarly by IST vs. genetic knockdown of Stat5 in prostate cancer cells. […] (C), mRNA levels of MCM10 and BRCA2 were reduced, determined by quantitative real-time polymerase chain reaction (qRT-PCR), in CWR22Pc cells upon genetic knockdown of Stat5 by lentiviral expression of shStat5 vs. shCtrl or by treatment with IST5 (6 µM) vs. vehicle for 3 days. […]

[2] = system: BRCA2; assay: qRT-PCR mRNA level; type: cell-based, human; conditions: CWR22Pc cells, 6 µM vs. vehicle, 3 days
Source text: as §1, §2

[3] = molecular target: T1, AXL (Homo sapiens, UniProt P30530); assay: Kinase Seeker luminescence cell-free assay; type: binding; conditions: percent activity of kinase after exposure to IST5 1 µM
T1 construct: purchased Reaction Biology (JAK1/2/3, TYK2); Luceome Biotechnologies KinaseSeeker (others)
Description: (§3) For Jak1, Jak2, Jak3 and Tyk2, a radiometric filtration binding assay was conducted by Reaction Biologicals (Malvern, PA, USA) (Table 1). This radiometric assay is a cell-free assay which is based on conventional filter-binding assays, directly measuring kinase catalytic activity toward a specific substrate. For evaluation of the activity of the other kinases, the Kinase Seeker Technology was utilized (Luceome Biotechnologies, Tucson, AZ, USA), which is a luminescence-based cell-free assay. In this assay, the reassembly of luciferase fragments is mediated by the interaction of a kinase with an active site-dependent probe. The competitive displacement of the probe by an inhibitor is measured by a change in luminescence signal. Percent activity of each kinase after exposure to IST5 (1 µM) is presented.

[4] = molecular target: T2, MET (Homo sapiens, UniProt P08581); assay: Kinase Seeker luminescence cell-free assay; type: binding; conditions: percent activity of kinase after exposure to IST5 1 µM
T2 construct: purchased Reaction Biology (JAK1/2/3, TYK2); Luceome Biotechnologies KinaseSeeker (others)
Description: as §3

[5] = molecular target: T3, CAMK1D (Homo sapiens, UniProt Q8IU85); assay: Kinase Seeker luminescence cell-free assay; type: binding; conditions: percent activity of kinase after exposure to IST5 1 µM
T3 construct: purchased Reaction Biology (JAK1/2/3, TYK2); Luceome Biotechnologies KinaseSeeker (others)
Description: as §3

T3 sequence (Q8IU85 whole entry): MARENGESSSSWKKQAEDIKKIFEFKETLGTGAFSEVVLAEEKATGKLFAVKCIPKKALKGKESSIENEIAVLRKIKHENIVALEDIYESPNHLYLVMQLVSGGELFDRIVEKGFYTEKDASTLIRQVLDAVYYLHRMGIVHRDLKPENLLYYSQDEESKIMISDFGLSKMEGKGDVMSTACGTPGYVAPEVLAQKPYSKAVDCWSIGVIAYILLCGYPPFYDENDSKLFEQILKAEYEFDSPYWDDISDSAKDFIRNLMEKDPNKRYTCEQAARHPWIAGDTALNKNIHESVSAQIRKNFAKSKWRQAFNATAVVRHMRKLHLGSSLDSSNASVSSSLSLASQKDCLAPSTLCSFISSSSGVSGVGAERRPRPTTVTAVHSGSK
T2 sequence (P08581 25-1390): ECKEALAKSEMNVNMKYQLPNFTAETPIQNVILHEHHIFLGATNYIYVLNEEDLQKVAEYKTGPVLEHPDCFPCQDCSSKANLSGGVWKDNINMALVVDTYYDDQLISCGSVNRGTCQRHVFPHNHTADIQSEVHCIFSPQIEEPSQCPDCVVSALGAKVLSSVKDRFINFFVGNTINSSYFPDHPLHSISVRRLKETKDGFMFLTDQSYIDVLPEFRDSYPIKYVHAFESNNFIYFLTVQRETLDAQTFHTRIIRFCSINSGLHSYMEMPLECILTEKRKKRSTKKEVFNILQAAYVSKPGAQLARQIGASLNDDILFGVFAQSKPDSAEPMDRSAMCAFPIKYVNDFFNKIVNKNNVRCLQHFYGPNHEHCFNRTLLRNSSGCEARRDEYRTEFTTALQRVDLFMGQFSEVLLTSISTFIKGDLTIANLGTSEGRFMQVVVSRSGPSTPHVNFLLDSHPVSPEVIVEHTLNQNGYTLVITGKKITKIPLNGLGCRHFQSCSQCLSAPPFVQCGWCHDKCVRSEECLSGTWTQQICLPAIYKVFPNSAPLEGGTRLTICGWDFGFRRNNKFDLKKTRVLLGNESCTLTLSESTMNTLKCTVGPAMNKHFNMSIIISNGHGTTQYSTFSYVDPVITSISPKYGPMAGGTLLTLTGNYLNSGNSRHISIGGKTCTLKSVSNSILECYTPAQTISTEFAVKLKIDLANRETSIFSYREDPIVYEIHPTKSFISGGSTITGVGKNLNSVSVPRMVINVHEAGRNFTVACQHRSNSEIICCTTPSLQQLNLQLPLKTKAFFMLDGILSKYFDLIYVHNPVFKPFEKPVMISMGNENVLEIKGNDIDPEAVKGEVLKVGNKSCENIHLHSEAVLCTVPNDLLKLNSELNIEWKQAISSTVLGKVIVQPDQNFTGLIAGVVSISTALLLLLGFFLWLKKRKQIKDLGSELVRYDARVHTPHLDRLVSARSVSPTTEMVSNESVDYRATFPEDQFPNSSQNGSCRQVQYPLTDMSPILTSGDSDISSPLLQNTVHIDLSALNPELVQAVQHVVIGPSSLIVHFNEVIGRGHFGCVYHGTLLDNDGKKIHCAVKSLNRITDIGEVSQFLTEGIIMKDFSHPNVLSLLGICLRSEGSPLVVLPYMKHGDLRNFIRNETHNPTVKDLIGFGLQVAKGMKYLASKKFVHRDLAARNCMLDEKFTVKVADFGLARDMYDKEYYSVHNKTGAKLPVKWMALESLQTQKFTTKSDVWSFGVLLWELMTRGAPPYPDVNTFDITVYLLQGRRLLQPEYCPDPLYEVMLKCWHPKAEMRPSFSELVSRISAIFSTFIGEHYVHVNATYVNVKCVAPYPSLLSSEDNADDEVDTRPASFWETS
T1 sequence (P30530 26-894): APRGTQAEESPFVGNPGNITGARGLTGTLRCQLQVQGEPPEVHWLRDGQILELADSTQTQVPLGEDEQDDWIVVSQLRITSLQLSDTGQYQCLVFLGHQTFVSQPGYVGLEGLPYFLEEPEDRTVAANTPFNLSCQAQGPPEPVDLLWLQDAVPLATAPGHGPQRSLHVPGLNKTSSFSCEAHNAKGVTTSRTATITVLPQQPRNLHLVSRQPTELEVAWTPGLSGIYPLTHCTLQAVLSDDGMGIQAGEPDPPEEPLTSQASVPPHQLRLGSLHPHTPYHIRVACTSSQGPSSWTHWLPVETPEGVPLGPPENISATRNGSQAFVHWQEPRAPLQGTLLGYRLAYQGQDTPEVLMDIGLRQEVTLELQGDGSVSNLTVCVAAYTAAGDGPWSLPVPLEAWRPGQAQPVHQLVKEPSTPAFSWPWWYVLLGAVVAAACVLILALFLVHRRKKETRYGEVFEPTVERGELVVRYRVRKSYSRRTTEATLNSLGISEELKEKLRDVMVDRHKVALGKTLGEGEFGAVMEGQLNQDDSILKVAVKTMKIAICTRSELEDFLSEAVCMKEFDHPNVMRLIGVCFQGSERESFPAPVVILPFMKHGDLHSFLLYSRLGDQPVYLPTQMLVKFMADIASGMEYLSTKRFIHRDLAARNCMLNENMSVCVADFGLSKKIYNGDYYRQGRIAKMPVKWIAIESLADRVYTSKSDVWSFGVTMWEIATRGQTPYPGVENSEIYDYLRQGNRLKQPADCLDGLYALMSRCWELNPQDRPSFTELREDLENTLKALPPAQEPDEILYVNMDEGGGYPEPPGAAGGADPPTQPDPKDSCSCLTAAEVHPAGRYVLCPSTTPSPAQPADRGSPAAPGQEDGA

`O=P(O)(O)OCC1OC(n2cnc3c(NCc4ccccc4)ncnc32)C(O)C1O` (centres unmarked) [IST5] was tested, and the “mRNA level of MCM10” value [1] was “reduced”, the “mRNA level of BRCA2” value [2] was “reduced” and the Activity [3] was 90.4%. The Activity [4] was 100.0% and the Activity [5] was 92.0%.
